The results in this text go back to patent publication US12173020B2, “New-type oxazolidinone compounds and preparation method therefor” (priority 2019, dated 2024).

Assay [1] has as its system methicillin-resistant Staphylococcus aureus (MRSA). Nature of the assay: agar dilution method, inhibitory effect on MRSA. The class given is cell-based. The note with it: for MIC50: Staphylococcus aureus, read-out: Minimum inhibitory concentration (MIC50, μg/ml) MRSA. The text has this:
(§1) In order to determine the antibacterial activity of these new oxazolidinone-based compounds, an agar dilution method was used to test the inhibitory effect on methicillin-resistant Staphylococcus aureus (MRSA) and vancomycin-resistant Enterococcus (VRE). The bacteria inhibition effect was expressed as minimum inhibitory concentration (MIC50, μg/ml) The test results are shown in the following table.

In assay [2] the test system is vancomycin-resistant Enterococcus (VRE). Nature of the assay: agar dilution method, inhibitory effect on VRE. The class given is cell-based. To be noted: for MIC50: Enterococcus, read-out: Minimum inhibitory concentration (MIC50, μg/ml) VRE.
Excerpt: as §1

`Cn1nnc(-c2ccc(-c3ccc(N4C[C@H](C(O)C(F)F)OC4=O)cc3F)cn2)n1.O=P(O)(O)O` (stereo partly drawn) [compound 127, (R)-3-(3-fluoro-4-(6-(2-methyl-2H-tetrazol-5-yl)pyridin-3-yl)phenyl)-5-(1-hydroxy-2-difluoroethyl) oxazolidin-2-one phosphate]: the “Minimum inhibitory concentration (MIC50, μg/ml) MRSA” value in assay [1] amounted to 0.6 µg/mL. Further, the “Minimum inhibitory concentration (MIC50, μg/ml) VRE” value in assay [2] was found to be 0.7 µg/mL.

On to `Cn1nnc(-c2ccc(-c3ccc(N4C[C@@H](C(OP(=O)(O)O)C(F)F)OC4=O)cc3F)cn2)n1` (stereo partly drawn) [compound 128, (S)-3-(3-fluoro-4-(6-(2-methyl-2H-tetrazol-5-yl)pyridin-3-yl)phenyl)-5-(1-hydroxy-2-difluoroethyl) oxazolidin-2-one phosphate], for which the “Minimum inhibitory concentration (MIC50, μg/ml) MRSA” value in assay [1] was 0.5 µg/mL. In addition, in assay [2], the “Minimum inhibitory concentration (MIC50, μg/ml) VRE” value is 0.5 µg/mL.

Turning to `Cn1nnc(-c2ccc(-c3ccc(N4C[C@H](C(O)CF)OC4=O)cc3F)cn2)n1.O=P(O)(O)O` (stereo partly drawn) [compound 129, (R)-3-(3-fluoro-4-(6-(2-methyl-2H-tetrazol-5-yl)pyridin-3-yl)phenyl)-5-(1-hydroxy-2-fluoroethyl) oxazolidin-2-one phosphate], the MIC50 in assay [1] worked out at 0.5 µg/mL; in assay [2], 0.3 µg/mL.

Consider `Cn1nnc(-c2ccc(-c3ccc(N4C[C@@H](C(O)CF)OC4=O)cc3F)cn2)n1.O=P(O)(O)O` (stereo partly drawn) [compound 130, (S)-3-(3-fluoro-4-(6-(2-methyl-2H-tetrazol-5-yl)pyridin-3-yl)phenyl)-5-(1-hydroxy-2-fluoroethyl) oxazolidin-2-one phosphate], for which the MIC50 in assay [1] and in assay [2] was 0.2 µg/mL throughout.

Regarding `Cn1nnc(-c2ccc(-c3ccc(N4C[C@H](C(O)C5CC5)OC4=O)cc3F)cn2)n1.O=P(O)(O)O` (stereo partly drawn) [compound 131, (R)-3-(3-fluoro-4-(6-(2-methyl-2H-tetrazol-5-yl)pyridin-3-yl)phenyl)-5-(1-hydroxy-1-cyclopropylmethyl) oxazolidin-2-one phosphate], the figures for the MIC50 in assay [1] and in assay [2] were 0.2 µg/mL and 0.1 µg/mL, respectively.

As to `Cn1nnc(-c2ccc(-c3ccc(N4C[C@@H](C(O)C5CC5)OC4=O)cc3F)cn2)n1.O=P(O)(O)O` (stereo partly drawn) [compound 132, (S)-3-(3-fluoro-4-(6-(2-methyl-2H-tetrazol-5-yl)pyridin-3-yl)phenyl)-5-(1-hydroxy-1-cyclopropylmethyl) oxazolidin-2-one phosphate], the MIC50 in assay [1] and in assay [2] was 0.3 µg/mL throughout.

For the compound `CCn1nnc(-c2ccc(-c3ccc(N4C[C@H](C(O)C(F)F)OC4=O)cc3F)cn2)n1.O=P(O)(O)O` (stereo partly drawn) [compound 133, (R)-3-(3-fluoro-4-(6-(2-ethyl-2H-tetrazol-5-yl)pyridin-3-yl)phenyl)-5-(1-hydroxy-2-difluoroethyl) oxazolidin-2-one phosphate], in assay [1], the “Minimum inhibitory concentration (MIC50, μg/ml) MRSA” value is 0.3 µg/mL. Further, the “Minimum inhibitory concentration (MIC50, μg/ml) VRE” value in assay [2] amounted to 0.2 µg/mL.

Turning to `CCn1nnc(-c2ccc(-c3ccc(N4C[C@@H](C(O)C(F)F)OC4=O)cc3F)cn2)n1.O=P(O)(O)O` (stereo partly drawn) [compound 134, (S)-3-(3-fluoro-4-(6-(2-ethyl-2H-tetrazol-5-yl)pyridin-3-yl)phenyl)-5-(1-hydroxy-2-difluoroethyl) oxazolidin-2-one phosphate], the “Minimum inhibitory concentration (MIC50, μg/ml) MRSA” value in assay [1] was found to be 0.5 µg/mL. In addition, the “Minimum inhibitory concentration (MIC50, μg/ml) VRE” value in assay [2] was 0.5 µg/mL.

Regarding `CCn1nnc(-c2ccc(-c3ccc(N4C[C@H](C(O)CF)OC4=O)cc3F)cn2)n1.O=P(O)(O)O` (stereo partly drawn) [compound 135, (R)-3-(3-fluoro-4-(6-(2-ethyl-2H-tetrazol-5-yl)pyridin-3-yl)phenyl)-5-(1-hydroxy-2-fluoroethyl) oxazolidin-2-one phosphate], the MIC50 in assay [1] amounted to 0.4 µg/mL; in assay [2] it was 0.3 µg/mL.

As to `CCn1nnc(-c2ccc(-c3ccc(N4C[C@@H](C(O)CF)OC4=O)cc3F)cn2)n1.O=P(O)(O)O` (stereo partly drawn) [compound 136, (S)-3-(3-fluoro-4-(6-(2-ethyl-2H-tetrazol-5-yl)pyridin-3-yl)phenyl)-5-(1-hydroxy-2-fluoroethyl) oxazolidin-2-one phosphate], the values for the MIC50 in assay [1] and in assay [2] were 0.4 µg/mL and 0.2 µg/mL, respectively.

For the compound `CCn1nnc(-c2ccc(-c3ccc(N4C[C@H](C(O)C5CC5)OC4=O)cc3F)cn2)n1.O=P(O)(O)O` (stereo partly drawn) [compound 137, (R)-3-(3-fluoro-4-(6-(2-ethyl-2H-tetrazol-5-yl)pyridin-3-yl)phenyl)-5-(1-hydroxy-1-cyclopropylmethyl) oxazolidin-2-one phosphate], the MIC50 in assay [1] was found to be 1.5 µg/mL; in assay [2], 1.1 µg/mL.

With `CCn1nnc(-c2ccc(-c3ccc(N4C[C@@H](C(O)C5CC5)OC4=O)cc3F)cn2)n1.O=P(O)(O)O` (stereo partly drawn) [compound 138, (S)-3-(3-fluoro-4-(6-(2-ethyl-2H-tetrazol-5-yl)pyridin-3-yl)phenyl)-5-(1-hydroxy-1-cyclopropylmethyl) oxazolidin-2-one phosphate], the MIC50 in assay [1] and in assay [2] was 1 µg/mL throughout.

On to `CCCn1nnc(-c2ccc(-c3ccc(N4C[C@H](C(OP(=O)(O)O)C(F)F)OC4=O)cc3F)cn2)n1` (stereo partly drawn) [compound 139, (R)-3-(3-fluoro-4-(6-(2-propyl-2H-tetrazol-5-yl)pyridin-3-yl)phenyl)-5-(1-hydroxy-2-difluoroethyl) oxazolidin-2-one phosphate], for which the “Minimum inhibitory concentration (MIC50, μg/ml) MRSA” value in assay [1] came to 0.8 µg/mL. The “Minimum inhibitory concentration (MIC50, μg/ml) VRE” value in assay [2] is 0.9 µg/mL.

Consider `CCCn1nnc(-c2ccc(-c3ccc(N4C[C@@H](C(O)C(F)F)OC4=O)cc3F)cn2)n1.O=P(O)(O)O` (stereo partly drawn) [compound 140, (S)-3-(3-fluoro-4-(6-(2-propyl-2H-tetrazol-5-yl)pyridin-3-yl)phenyl)-5-(1-hydroxy-2-difluoroethyl) oxazolidin-2-one phosphate], for which, in assay [1], the “Minimum inhibitory concentration (MIC50, μg/ml) MRSA” value came out at 0.4 µg/mL. The “Minimum inhibitory concentration (MIC50, μg/ml) VRE” value in assay [2] is 0.4 µg/mL.

Regarding `CCCn1nnc(-c2ccc(-c3ccc(N4C[C@H](C(O)CF)OC4=O)cc3F)cn2)n1.O=P(O)(O)O` (stereo partly drawn) [compound 141, (R)-3-(3-fluoro-4-(6-(2-propyl-2H-tetrazol-5-yl)pyridin-3-yl)phenyl)-5-(1-hydroxy-2-fluoroethyl) oxazolidin-2-one phosphate], the results for the MIC50 in assay [1] and in assay [2] were 0.3 µg/mL and 0.2 µg/mL, respectively.

In the case of `CCCn1nnc(-c2ccc(-c3ccc(N4C[C@@H](C(O)CF)OC4=O)cc3F)cn2)n1.O=P(O)(O)O` (stereo partly drawn) [compound 142, (S)-3-(3-fluoro-4-(6-(2-propyl-2H-tetrazol-5-yl)pyridin-3-yl)phenyl)-5-(1-hydroxy-2-fluoroethyl) oxazolidin-2-one phosphate], the MIC50 in assay [1] and in assay [2] was 0.2 µg/mL each time.

As to `CCCn1nnc(-c2ccc(-c3ccc(N4C[C@H](C(O)C5CC5)OC4=O)cc3F)cn2)n1.O=P(O)(O)O` (stereo partly drawn) [compound 143, (R)-3-(3-fluoro-4-(6-(2-propyl-2H-tetrazol-5-yl)pyridin-3-yl)phenyl)-5-(1-hydroxy-1-cyclopropylmethyl) oxazolidin-2-one phosphate], the figures for the MIC50 in assay [1] and in assay [2] were 0.3 µg/mL and 0.2 µg/mL, respectively.

Consider `CCCn1nnc(-c2ccc(-c3ccc(N4C[C@@H](C(O)C5CC5)OC4=O)cc3F)cn2)n1.O=P(O)(O)O` (stereo partly drawn) [compound 144, (S)-3-(3-fluoro-4-(6-(2-propyl-2H-tetrazol-5-yl)pyridin-3-yl)phenyl)-5-(1-hydroxy-1-cyclopropylmethyl) oxazolidin-2-one phosphate], for which the MIC50 in assay [1] and in assay [2] was 0.4 µg/mL each time.

Take `O=C1O[C@@H](C(O)C(F)F)CN1c1ccc(-c2ccc(-c3nnn(C4CC4)n3)nc2)c(F)c1.O=P(O)(O)O` (stereo partly drawn) [compound 145, (R)-3-(3-fluoro-4-(6-(2-cyclopropyl-2H-tetrazol-5-yl)pyridin-3-yl)phenyl)-5-(1-hydroxy-2-difluoroethyl) oxazolidin-2-one phosphate]: the “Minimum inhibitory concentration (MIC50, μg/ml) MRSA” value in assay [1] came to 0.6 µg/mL. Moreover, in assay [2], the “Minimum inhibitory concentration (MIC50, μg/ml) VRE” value was found to be 0.5 µg/mL.

For the compound `O=C1O[C@H](C(O)C2CC2)CN1c1ccc(-c2ccc(-c3nnn(C4CC4)n3)nc2)c(F)c1.O=P(O)(O)O` (stereo partly drawn) [compound 150, (S)-3-(3-fluoro-4-(6-(2-cyclopropyl-2H-tetrazol-5-yl)pyridin-3-yl)phenyl)-5-(1-hydroxy-1-cyclopropylmethyl) oxazolidin-2-one phosphate], the MIC50 in assay [1] and in assay [2] was 0.2 µg/mL each time.

`C=Cn1nnc(-c2ccc(-c3ccc(N4C[C@H](C(OP(=O)(O)O)C(F)F)OC4=O)cc3F)cn2)n1` (stereo partly drawn) [compound 151, (R)-3-(3-fluoro-4-(6-(2-vinyl-2H-tetrazol-5-yl)pyridin-3-yl)phenyl)-5-(1-hydroxy-2-difluoroethyl) oxazolidin-2-one phosphate]: the “Minimum inhibitory concentration (MIC50, μg/ml) MRSA” value in assay [1] came out at 0.8 µg/mL. Also, the “Minimum inhibitory concentration (MIC50, μg/ml) VRE” value in assay [2] was 0.6 µg/mL.

As to `C=Cn1nnc(-c2ccc(-c3ccc(N4C[C@@H](C(O)C(F)F)OC4=O)cc3F)cn2)n1.O=P(O)(O)O` (stereo partly drawn) [compound 152, (S)-3-(3-fluoro-4-(6-(2-vinyl-2H-tetrazol-5-yl)pyridin-3-yl)phenyl)-5-(1-hydroxy-2-difluoroethyl) oxazolidin-2-one phosphate], the “Minimum inhibitory concentration (MIC50, μg/ml) MRSA” value in assay [1] was 0.3 µg/mL. Moreover, the “Minimum inhibitory concentration (MIC50, μg/ml) VRE” value in assay [2] was determined as 0.2 µg/mL.

Take `C=Cn1nnc(-c2ccc(-c3ccc(N4C[C@H](C(O)CF)OC4=O)cc3F)cn2)n1.O=P(O)(O)O` (stereo partly drawn) [compound 153, (R)-3-(3-fluoro-4-(6-(2-vinyl-2H-tetrazol-5-yl)pyridin-3-yl)phenyl)-5-(1-hydroxy-2-fluoroethyl) oxazolidin-2-one phosphate]: the MIC50 in assay [1] came out at 0.2 µg/mL; in assay [2] it was 0.1 µg/mL.
